From US8367687B2, “Pyrazole derivatives” (Novartis AG, priority 2007, dated 2013)
pIC50: −log10 of the molar value. Where two headings read alike, the source gives them in different places.

Legend:
CDK4 = CDK4 (Homo sapiens, UniProt P11802); test: CDK4 HTRF; type: biochemical
CDK2 cyA = CDK2 cyA (Homo sapiens, UniProt P24941); test: CDK2 cyA IMAP; type: biochemical
hCDK1/B = hCDK1/B (Homo sapiens, UniProt P06493); test: hCDK1/B; type: biochemical
p-pRb/S780 = p-pRb/S780 ELISA Cellular Assay (CDK4 ELISA assay); type: cell-based; conditions: Table 2; cells treated for 24 hrs; read-out: p_pRb Cap EL/ IC50_ppRbinh
Protocol: Biological Activity p-pRb/S780 ELISA Cellular Assay
Maxisorp plates (Nunc 442404) are coated with 50 ul of 1 ug/mL total phospholated Retinoblast Protein (pRb) antibody (4H1 Cell Signaling 9309L) diluted in DPBS (Phosphate Buffered Saline) overnight at 4° C. The next day plates are blocked with Superblock in TBST (Pierce 37535) for one hour to overnight—changing block once during that time. Cells are plated at 50-60% confluency in a 96 well plate (Corning 3585) in 100 uL complete media (media containing fetal bovine serum (Gibco 1600-044), 2 mM L-Glutamine (Gibco 25030), and 1% Penicillin/Streptomycin (Gibco 15140-122) and grown overnight in a humidified chamber at 37° C. and 5% CO2. Compounds (in DMSO) are diluted in media to create a 7 point dilution series of compound with concentrations ranging from 110 uM to 0.027 uM. 10 ul of the diluted compounds are added to the cells, with final concentrations on cells ranging from 10 uM to 0.002 uM. Cells are treated for 24 hrs in a humidified chamber at 37° C. and 5% CO2. Following compound incubation, cells are lysed with 40 uL/well lysis buffer (50 mM Tris-HCL pH 7.5 (Invitrogen 15567-027), 120 mM NaCl (Promega V4221), 1 mM EDTA (Gibco 15575-038), 6 mM EGTA (Fisher 02783-100), 1% Nonidet P40 (Fluka R02771). Plates are placed on Titerplate shaker (Labline model 4625) for 5 minutes at 4° C. to lyse cells. After lysis, 10 ul of cell lysate and 50 ul 1×PBS/10% Superblock (Gibco 10010 and Pierce 37535) is added to each well of the precoated and blocked Maxisorp plate and allowed to bind at room temperature for 2 hours on Oribtron Rotator II (Boekel Industries Model 260250). Plates are then washed 3× with 1×TBST (Teknova T9201) using Biotek platewasher equipped with a Biostack. The final wash is not aspirated. The final wash is removed by flicking off and tapping plate on paper towels. ppRbS780 antibody (Cell Signaling 9307L) is diluted 1:1000 in 1×PBS/10% Superblock (Gibco 10010 and Pierce 37535) and 50 ul is added to each well. Plates are then incubated 1 hour on Oribtron Rotator II (Boekel Industries Model 260250). Plates are then washed as previously described. Goat anti-rabbit HRP (Promega W401B) is diluted 1:2500 1×PBS/10% Superblock (Gibco 10010 and Pierce 37535) and 50 ul is added to each well. Plates are then incubated 30 minutes on Oribtron Rotator II. Plates are then washed as previously described. 50 uL Ultra TMB ELISA (Pierce 34028) is then added to each well. Plates are incubated 5-20 minutes until blue color develops. 50 ul 2M Sulfuric acid (Mallinckrodt 2468-46) is then added to each well to stop the reaction. Absorbance at 450 nm for each plate is read on Spectramax Plus (Molecular Devices).

[1] = Table 2, read-out: CDK4 HTRF/ IC50
[2] = Table 2, read-out: CDK2cyA IMAP/ IC50
[3] = Table 1, read-out: CDK2 cyA IMAP

hCDK1/B, sequence (P06493 whole entry): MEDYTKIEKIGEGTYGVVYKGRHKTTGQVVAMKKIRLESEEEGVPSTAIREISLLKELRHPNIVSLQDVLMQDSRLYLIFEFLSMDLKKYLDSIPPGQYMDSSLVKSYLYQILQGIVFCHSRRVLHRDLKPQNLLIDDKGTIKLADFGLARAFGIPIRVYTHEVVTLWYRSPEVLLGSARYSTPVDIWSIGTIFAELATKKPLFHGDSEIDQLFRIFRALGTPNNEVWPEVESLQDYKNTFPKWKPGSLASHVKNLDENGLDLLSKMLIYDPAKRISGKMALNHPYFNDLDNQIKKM
hCDK1/B, sequence (P14635 whole entry partner): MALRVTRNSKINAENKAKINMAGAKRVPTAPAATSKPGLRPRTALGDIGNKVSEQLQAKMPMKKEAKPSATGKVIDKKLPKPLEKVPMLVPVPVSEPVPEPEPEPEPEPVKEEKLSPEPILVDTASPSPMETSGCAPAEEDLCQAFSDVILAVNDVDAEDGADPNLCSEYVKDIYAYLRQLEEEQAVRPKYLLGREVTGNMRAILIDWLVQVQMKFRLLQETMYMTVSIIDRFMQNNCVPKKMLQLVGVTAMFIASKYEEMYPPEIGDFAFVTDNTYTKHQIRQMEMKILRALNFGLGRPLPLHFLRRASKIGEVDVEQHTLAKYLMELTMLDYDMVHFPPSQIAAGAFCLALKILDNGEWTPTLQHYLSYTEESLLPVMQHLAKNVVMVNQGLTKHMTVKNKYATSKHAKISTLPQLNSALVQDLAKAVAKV
CDK4, sequence (P11802 whole entry): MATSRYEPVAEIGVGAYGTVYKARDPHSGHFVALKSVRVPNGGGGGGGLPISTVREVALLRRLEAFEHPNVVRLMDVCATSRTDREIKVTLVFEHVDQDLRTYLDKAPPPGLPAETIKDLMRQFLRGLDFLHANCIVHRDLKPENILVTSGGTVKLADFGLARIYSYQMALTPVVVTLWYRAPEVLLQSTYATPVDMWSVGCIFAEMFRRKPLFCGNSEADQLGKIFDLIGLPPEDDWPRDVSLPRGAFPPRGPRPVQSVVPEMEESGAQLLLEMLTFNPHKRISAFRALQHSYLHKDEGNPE
CDK4, sequence (P24385 whole entry partner): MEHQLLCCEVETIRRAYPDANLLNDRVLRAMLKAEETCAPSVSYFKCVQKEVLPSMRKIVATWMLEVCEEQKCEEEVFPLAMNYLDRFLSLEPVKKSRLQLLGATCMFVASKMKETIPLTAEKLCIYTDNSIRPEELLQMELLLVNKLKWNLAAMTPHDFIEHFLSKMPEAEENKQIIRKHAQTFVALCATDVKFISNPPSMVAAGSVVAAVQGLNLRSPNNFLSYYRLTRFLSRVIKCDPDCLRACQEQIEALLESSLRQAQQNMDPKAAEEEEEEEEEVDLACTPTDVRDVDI

Row | pIC50 (CDK4; [1]) | pIC50 (CDK2 cyA; [2]) | pIC50 (hCDK1/B; Table 2) | pIC50 (p-pRb/S780) | pIC50 (CDK4; Table 1, read-out: CDK4 HTRF) | pIC50 (CDK2 cyA; [3]) | pIC50 (hCDK1/B; Table 1) | SMILES
1 | > 7.30 | > 6.30 | > 6.30 | > 5.30 |  |  |  | CC(C)c1n[nH]cc1-c1ccnc(NC2Cc3ccccc3C2)n1 [Example 170]
2 | > 5.30 | > 5.00 | > 5.00 | > 4.82 |  |  |  | CCCCNc1nccc(-c2c[nH]nc2C)n1 [Example 119]
3 | > 5.30 | > 4.82 | > 4.82 | > 4.82 |  |  |  | Cc1n[nH]cc1-c1ccnc(NCCOc2ccccc2)n1 [Example 98]
4 | > 5.00 | ≤ 4.82 | ≤ 4.82 | > 4.82 |  |  |  | Cc1n[nH]cc1-c1ccnc(NCCN2CCCC2)n1 [Example 109]
5 | > 4.82 | ≤ 4.82 | ≤ 4.82 | > 4.82 |  |  |  | COCCNc1nccc(-c2c[nH]nc2C)n1 [Example 120]
6 | > 4.82 | ≤ 4.82 | ≤ 4.82 | > 4.82 |  |  |  | COc1cccc(OC)c1CNc1nccc(-c2c[nH]nc2C(C)C)n1 [Example 156]
7 | > 5.30 | > 4.82 | > 4.82 | > 4.82 |  |  |  | CC(=O)NCCNc1nccc(-c2c[nH]nc2C)n1 [Example 123]
8 |  |  |  |  | > 6.30 | > 5.30 | > 5.30 | CCC(CC)c1[nH]ncc1-c1ccnc(NCc2ccccc2C)c1 [Example 71]
9 | > 6.30 | > 5.30 | > 6.00 |  |  |  |  | CC(CCCC(C)(C)O)Nc1nccc(-c2c[nH]nc2C(C)C)n1 (stereo not shown) [Example 145]
10 |  |  |  |  | > 5.30 | > 5.30 | > 5.30 | CC(C)c1[nH]ncc1-c1ccnc(NCC2CCCCCC2)c1 [Example 20]
11 |  |  |  |  | > 7.00 | > 5.30 | > 5.30 | Cc1ccccc1CNc1cc(-c2cn[nH]c2C(C)C)ccn1 [Example 14, [4-(5-Isopropyl-1H-pyrazol-4-yl)-pyridin-2-yl]-(2-methyl-benzyl)-amine]
12 |  |  |  |  | > 5.30 | > 5.30 | > 5.30 | Cc1ccc(CNc2cc(-c3cn[nH]c3C(C)C)ccn2)cc1 [Example 28]
13 |  |  |  |  | > 6.00 | > 5.30 | > 6.00 | CCC(CC)c1[nH]ncc1-c1ccnc(NC2CCN(C(=O)OC(C)(C)C)CC2)c1 [Example 72]
14 |  |  |  |  | > 6.30 | > 6.00 | > 5.30 | CC(C)c1[nH]ncc1-c1ccnc(NC2CC2)c1 [Example 39]
15 |  |  |  |  | > 6.00 | > 5.30 | > 5.30 | CC(C)c1[nH]ncc1-c1ccnc(NC(C)c2ccccc2)c1 (stereo not shown) [Example 27]
16 |  |  |  |  | > 6.30 | > 5.30 | > 5.30 | CC(C)c1[nH]ncc1-c1ccnc(NC2CCc3ccccc32)c1 (stereo not shown) [Example 43]
17 | > 6.00 | > 5.30 | > 5.30 |  |  |  |  | CC(C)c1n[nH]cc1-c1ccnc(N[C@H]2CCc3ccccc32)n1 [Example 175]
18 | > 6.30 | > 5.30 | > 5.30 |  |  |  |  | Cc1nnc(CCNc2nccc(-c3c[nH]nc3C(C)C)n2)[nH]1 [Example 161]
19 | > 6.30 | > 5.00 | > 5.00 |  |  |  |  | CC(C)c1n[nH]cc1-c1ccnc(NC(C)c2ccccn2)n1 (stereo not shown) [Example 183]
20 |  |  |  |  | > 6.30 | > 4.82 | > 5.00 | CC(C)c1[nH]ncc1-c1ccnc(NC2CCN(C)CC2)c1 [Example 78]
21 | > 6.30 | > 6.00 | > 6.30 |  |  |  |  | Cc1ccccc1CNc1nccc(-c2c[nH]nc2C(C)C)n1 [Example 164]
22 |  |  |  |  | > 5.30 | > 5.30 | > 5.30 | CC(C)c1[nH]ncc1-c1ccnc(NCC2CCCCC2)c1 [Example 6]
23 | > 6.00 | > 5.30 | > 6.00 |  |  |  |  | CC(C)c1n[nH]cc1-c1ccnc(NCc2c(F)cccc2F)n1 [Example 157]
24 | > 6.30 | > 5.30 | > 5.30 |  |  |  |  | CC(C)c1n[nH]cc1-c1ccnc(NC2CC(C)(C)c3ccccc32)n1 (stereo not shown) [Example 191]
25 | > 5.30 | > 5.30 | > 6.00 |  |  |  |  | CC(C)c1n[nH]cc1-c1ccnc(NCCCN(C)c2ccccc2)n1 [Example 142]

Row | pIC50 (CDK4; [1]) | pIC50 (CDK2 cyA; [2]) | pIC50 (hCDK1/B; Table 2) | pIC50 (p-pRb/S780) | pIC50 (CDK4; Table 1, read-out: CDK4 HTRF) | pIC50 (CDK2 cyA; [3]) | pIC50 (hCDK1/B; Table 1) | SMILES
26 |  |  |  |  | > 6.30 | > 6.00 | > 5.30 | CC(C)c1[nH]ncc1-c1ccnc(NCCc2ccccc2)c1 [Example 37]
27 |  |  |  |  | > 5.30 | > 5.30 | > 5.30 | COc1ccc(CNc2cc(-c3cn[nH]c3C(C)C)ccn2)cc1 [Example 34]
28 |  |  |  |  | > 5.30 | ≤ 4.82 | > 5.00 | CN1CCC(Nc2cc(-c3cn[nH]c3C3CCCC3)ccn2)CC1 [Example 79]
29 |  |  |  |  | > 4.82 | ≤ 4.82 | ≤ 4.82 | CC(C)(C)c1[nH]ncc1-c1ccnc(NC2CCc3ccccc32)c1 (stereo not shown) [Example 75]
30 | > 6.00 | > 5.00 | > 5.00 |  |  |  |  | Cc1n[nH]cc1-c1ccnc(NCCc2cccnc2)n1 [Example 132]
31 |  |  |  |  | > 5.00 | > 5.30 | > 5.30 | FC(F)(F)c1ccccc1CNc1cc(-c2cn[nH]c2C2CCCC2)ccn1 [Example 63]
32 | > 5.00 | > 5.00 | > 5.30 |  |  |  |  | CC(C)c1n[nH]cc1-c1ccnc(N[C@@H](C)c2ccccc2)n1 [Example 182]
33 |  |  |  |  | > 6.30 | > 6.30 | > 5.30 | c1cc(-c2cn[nH]c2C2CCCC2)cc(NC2CCC2)n1 [Example 52]
34 |  |  |  |  | > 6.00 | > 5.30 | > 5.30 | CC(C)c1[nH]ncc1-c1ccnc(NCc2ccccc2)c1 [Example 4]
35 | > 6.30 | > 5.30 | > 5.30 |  |  |  |  | Cc1n[nH]cc1-c1ccnc(NC2Cc3ccccc3C2)n1 [Example 125]
36 | > 5.30 | ≤ 4.82 | ≤ 4.82 |  |  |  |  | Cc1[nH]nc(C(C)C)c1-c1ccnc(NC2CCN(C)CC2)n1 [Example 185]
37 | > 6.30 | > 5.30 | > 5.30 |  |  |  |  | Cc1n[nH]cc1-c1ccnc(NC2CCN(c3ccccc3)CC2)n1 [Example 136]
38 |  |  |  |  | > 5.30 | ≤ 4.82 | ≤ 4.82 | CC(C)c1[nH]ncc1-c1ccnc(NCCCCN(C)C)c1 [Example 18]
39 | > 7.30 | > 6.30 | > 6.30 |  |  |  |  | CCC(C)Nc1nccc(-c2c[nH]nc2C(C)C)n1 (stereo not shown) [Example 171]
40 |  |  |  |  | > 6.00 | > 5.30 | > 5.30 | CC(C)c1[nH]ncc1-c1ccnc(NCc2ccco2)c1 [Example 24]
41 |  |  |  |  | > 5.30 | ≤ 4.82 | ≤ 4.82 | CC(C)c1[nH]ncc1-c1ccnc(NCCCCN2CCCC2)c1 [Example 33]
42 | > 6.30 | > 4.82 | > 4.82 |  |  |  |  | Cc1n[nH]cc1-c1ccnc(NC2CCN(C)CC2)n1 [Example 90]
43 | > 5.30 | > 6.00 | > 6.00 |  |  |  |  | CC(C)c1n[nH]cc1-c1ccnc(NCc2ccccc2Cl)n1 [Example 153]
44 | > 5.30 | > 5.00 | > 5.00 |  |  |  |  | Cc1ccccc1CNc1nccc(-c2c[nH]nc2C)n1 [Example 137]
45 |  |  |  |  | > 6.30 | > 5.30 | > 5.30 | c1ccc(CCNc2cc(-c3cn[nH]c3C3CCCC3)ccn2)cc1 [Example 58]
46 |  |  |  |  | > 6.00 | > 5.30 | > 5.30 | CCC(C)c1[nH]ncc1-c1ccnc(NCc2ccccc2C)c1 (stereo not shown) [Example 81]
47 | > 4.82 | ≤ 4.82 | > 5.30 |  |  |  |  | CC(C)c1n[nH]cc1-c1ccnc(NCc2ccccc2OC(F)(F)F)n1 [Example 158]
48 |  |  |  |  | > 5.00 | ≤ 4.82 | > 4.82 | Cc1ccccc1CNc1cc(-c2cn[nH]c2C(C)(C)C)ccn1 [Example 76]
49 |  |  |  |  | > 6.30 | > 5.30 | > 5.30 | CCCNc1cc(-c2cn[nH]c2C(C)C)ccn1 [Example 44]
